Measured values taken from the supplement of paper PMC10307832.

Key:
Test in all cases: relative viability (nuclei count vs DMSO), 5 days (fraction); higher = more cells survive
NCI-H1651 = test system: NCI-H1651
How it was run: (§1)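 A single step with final 0.05% Triton X-100, 1% formaldehyde and 1 ug/ml Hoechst fixed the cells and stained nuclei 5 days after treatment. Lung cancer cell lines in 1536-well plates had been treated by pin tool the day after seeding with one drug alone or a fixed anchor-drug dose plus five library-drug doses (not always all listed) in √10 steps, and nuclei were counted on 4× images. Relative viability is the ratio of nuclei in treated wells to nuclei in vehicle wells, taken as the median of duplicate plates.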

NCI-H520 = test system: NCI-H520
How it was run: as §1

RERF-LC-KJ = test system: RERF-LC-KJ
How it was run: as §1

A549 = test system: A549
How it was run: as §1

NCI-H1623 = test system: NCI-H1623
How it was run: as §1

NCI-H522 = test system: NCI-H522
How it was run: as §1

NCI-H1703 = test system: NCI-H1703
How it was run: as §1

NCI-H1299 = test system: NCI-H1299
How it was run: as §1

Calu-6 = test system: Calu-6
How it was run: as §1

EBC-1 = test system: EBC-1
How it was run: as §1

IA-LM = test system: IA-LM
How it was run: as §1

With `CC1(C)CCC(c2ccc(Cl)cc2)=C(CN2CCN(c3ccc(C(=O)NS(=O)(=O)c4ccc(N[C@H](CCN5CCOCC5)CSc5ccccc5)c(S(=O)(=O)C(F)(F)F)c4)cc3)CC2)C1` [Navitoclax] + N=C(N)NC(=N)NCCc1ccccc1 [Phenformin] (partner 250 µM) as the molecule, how does the relative viability (NCI-H1651; first compound 0.005 µM) read?
Its relative viability is 0.3.

What about the relative viability (NCI-H1651; first compound 0.01581 µM) of the same molecule?
The relative viability was 0.3.

And the relative viability (NCI-H1651; first compound 0.05 µM)?
The relative viability was 0.298.

And the relative viability (NCI-H1651; first compound 0.1581 µM)?
Its relative viability is 0.353.

And the relative viability (NCI-H1651; first compound 0.5 µM)?
Its relative viability is 0.295.

What about the relative viability (NCI-H520; first compound 0.005 µM) of the same molecule?
The relative viability was 0.576.

What about the relative viability (NCI-H520; first compound 0.01581 µM) of the same molecule?
Its relative viability is 0.758.

What about the relative viability (NCI-H520; first compound 0.05 µM) of the same molecule?
The relative viability was 0.571.

And the relative viability (NCI-H520; first compound 0.1581 µM)?
Its relative viability is 0.507.

What about the relative viability (NCI-H520; first compound 0.5 µM) of the same molecule?
Its relative viability is 0.616.

What about the relative viability (RERF-LC-KJ; first compound 0.005 µM) of the same molecule?
Its relative viability is 0.41.

What about the relative viability (RERF-LC-KJ; first compound 0.01581 µM) of the same molecule?
Its relative viability is 0.353.

What about the relative viability (RERF-LC-KJ; first compound 0.05 µM) of the same molecule?
Its relative viability is 0.428.

What about the relative viability (RERF-LC-KJ; first compound 0.1581 µM) of the same molecule?
The relative viability was 0.381.

And the relative viability (RERF-LC-KJ; first compound 0.5 µM)?
Its relative viability is 0.437.

What about the relative viability (A549; first compound 0.005 µM) of the same molecule?
Its relative viability is 0.146.

And the relative viability (A549; first compound 0.01581 µM)?
The relative viability was 0.19.

What about the relative viability (A549; first compound 0.05 µM) of the same molecule?
The relative viability was 0.144.

And the relative viability (A549; first compound 0.1581 µM)?
Its relative viability is 0.157.

And the relative viability (A549; first compound 0.5 µM)?
The relative viability was 0.146.

What about the relative viability (NCI-H1623; first compound 0.005 µM) of the same molecule?
The relative viability was 0.624.

What about the relative viability (NCI-H1623; first compound 0.01581 µM) of the same molecule?
Its relative viability is 0.671.

And the relative viability (NCI-H1623; first compound 0.05 µM)?
The relative viability was 0.58.

What about the relative viability (NCI-H1623; first compound 0.1581 µM) of the same molecule?
Its relative viability is 0.567.

And the relative viability (NCI-H1623; first compound 0.5 µM)?
The relative viability was 0.555.

And the relative viability (NCI-H522; first compound 0.005 µM)?
Its relative viability is 0.633.

And the relative viability (NCI-H522; first compound 0.01581 µM)?
The relative viability was 0.603.

And the relative viability (NCI-H522; first compound 0.05 µM)?
The relative viability was 0.701.

What about the relative viability (NCI-H522; first compound 0.1581 µM) of the same molecule?
The relative viability was 0.695.

What about the relative viability (NCI-H522; first compound 0.5 µM) of the same molecule?
The relative viability was 0.699.

Which results are given for `Oc1nc(-c2ccc(C(F)(F)F)cc2)nc2c1CSCC2` [XAV939] + COc1cc2c(Oc3ccc(NC(=O)C4(C(=O)Nc5ccc(F)cc5)CC4)cc3F)ccnc2cc1OCCCN1CCOCC1 [Foretinib] (partner 0.25 µM)?
relative viability (NCI-H1651; first compound 0.08 µM): 0.786; relative viability (NCI-H1651; first compound 0.253 µM): 0.705; relative viability (NCI-H1651; first compound 0.8 µM): 0.826; relative viability (NCI-H1651; first compound 2.53 µM): 0.768; relative viability (NCI-H520; first compound 0.08 µM): 0.781; relative viability (NCI-H520; first compound 0.253 µM): 0.694; relative viability (NCI-H520; first compound 0.8 µM): 0.677; relative viability (NCI-H520; first compound 2.53 µM): 0.626; relative viability (RERF-LC-KJ; first compound 0.08 µM): 0.781; relative viability (RERF-LC-KJ; first compound 0.253 µM): 0.738; relative viability (RERF-LC-KJ; first compound 0.8 µM): 0.792; relative viability (RERF-LC-KJ; first compound 2.53 µM): 0.681; relative viability (NCI-H1703; first compound 0.08 µM): 0.348; relative viability (NCI-H1703; first compound 0.253 µM): 0.377; relative viability (NCI-H1703; first compound 0.8 µM): 0.416; relative viability (NCI-H1703; first compound 2.53 µM): 0.374; relative viability (A549; first compound 0.08 µM): 0.992; relative viability (A549; first compound 0.8 µM): 0.883; relative viability (A549; first compound 2.53 µM): 0.9; relative viability (NCI-H1299; first compound 0.08 µM): 1.13; relative viability (NCI-H1299; first compound 0.253 µM): 1.11; relative viability (NCI-H1299; first compound 0.8 µM): 1.07; relative viability (NCI-H1299; first compound 2.53 µM): 1.08; relative viability (NCI-H1623; first compound 0.08 µM): 0.826; relative viability (NCI-H1623; first compound 0.253 µM): 0.75; relative viability (NCI-H1623; first compound 0.8 µM): 0.703; relative viability (NCI-H1623; first compound 2.53 µM): 0.677; relative viability (Calu-6; first compound 0.08 µM): 0.88; relative viability (Calu-6; first compound 0.253 µM): 0.704; relative viability (Calu-6; first compound 0.8 µM): 0.776; relative viability (Calu-6; first compound 2.53 µM): 0.819; relative viability (EBC-1; first compound 0.08 µM): 0.108; relative viability (EBC-1; first compound 0.253 µM): 0.113; relative viability (EBC-1; first compound 0.8 µM): 0.106; relative viability (EBC-1; first compound 2.53 µM): 0.0948; relative viability (IA-LM; first compound 0.08 µM): 1.29; relative viability (IA-LM; first compound 0.253 µM): 0.968; relative viability (IA-LM; first compound 0.8 µM): 1.09; relative viability (IA-LM; first compound 2.53 µM): 0.729

Which relative viability (NCI-H1651; first compound 0.08 µM) does the source give for `Oc1nc(-c2ccc(C(F)(F)F)cc2)nc2c1CSCC2` [XAV939] + N=C(N)NC(=N)NCCc1ccccc1 [Phenformin] (partner 250 µM) here?
The relative viability was 0.359.

What about the relative viability (NCI-H1651; first compound 0.253 µM) of the same molecule?
The relative viability was 0.31.

What about the relative viability (NCI-H1651; first compound 0.8 µM) of the same molecule?
Its relative viability is 0.353.

What about the relative viability (NCI-H1651; first compound 2.53 µM) of the same molecule?
Its relative viability is 0.302.

And the relative viability (NCI-H520; first compound 0.08 µM)?
Its relative viability is 0.58.

And the relative viability (NCI-H520; first compound 0.253 µM)?
The relative viability was 0.51.

What about the relative viability (NCI-H520; first compound 0.8 µM) of the same molecule?
Its relative viability is 0.526.

And the relative viability (NCI-H520; first compound 2.53 µM)?
The relative viability was 0.401.

And the relative viability (RERF-LC-KJ; first compound 0.08 µM)?
Its relative viability is 0.485.

And the relative viability (RERF-LC-KJ; first compound 0.253 µM)?
The relative viability was 0.425.

And the relative viability (RERF-LC-KJ; first compound 0.8 µM)?
The relative viability was 0.442.

What about the relative viability (RERF-LC-KJ; first compound 2.53 µM) of the same molecule?
The relative viability was 0.364.

What about the relative viability (A549; first compound 0.08 µM) of the same molecule?
The relative viability was 0.136.

And the relative viability (A549; first compound 0.253 µM)?
The relative viability was 0.218.

And the relative viability (A549; first compound 0.8 µM)?
The relative viability was 0.129.

And the relative viability (A549; first compound 2.53 µM)?
Its relative viability is 0.175.

And the relative viability (NCI-H1623; first compound 0.08 µM)?
Its relative viability is 0.578.

And the relative viability (NCI-H1623; first compound 0.253 µM)?
The relative viability was 0.555.

What about the relative viability (NCI-H1623; first compound 0.8 µM) of the same molecule?
The relative viability was 0.59.

And the relative viability (NCI-H1623; first compound 2.53 µM)?
The relative viability was 0.591.

What about the relative viability (NCI-H522; first compound 0.08 µM) of the same molecule?
The relative viability was 0.599.

What about the relative viability (NCI-H522; first compound 0.253 µM) of the same molecule?
Its relative viability is 0.707.

What about the relative viability (NCI-H522; first compound 0.8 µM) of the same molecule?
Its relative viability is 0.594.

And the relative viability (NCI-H522; first compound 2.53 µM)?
Its relative viability is 0.599.
